For five compounds, TGI and GI50 results are on record in PubChem BioAssay (NCI).

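Growth conditions: 96-well plates. Treatment: test compound, 48 hours, 5 concentrations. Analysis: linear interpolation between bracketing concentrations; unreached endpoints set to highest concentration. GI50 marks 50% less growth. TGI denotes the concentration required for complete inhibition of growth.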

One assay has as its system P388 leukemia. Nature of the assay: NCI tumour cell line growth inhibition, 48 h.
The next assay concerns SN12K1 renal. Briefly: NCI tumour cell line growth inhibition, 48 h.

Regarding `OC(C1CO1)C(O)C1CO1` (configuration not stated), the TGI in the assay on P388 leukemia and in the assay on SN12K1 renal was 150 µM each time.
Regarding `NC(=S)N/N=C/c1ccc(O)cn1`, the TGI in the assay with P388 leukemia was 8.3 µM; in the assay with SN12K1 renal, more than 1500 µM.
For `O=C(NCCCCCCNC(=O)n1cc(F)c(=O)[nH]c1=O)NCCCOCCOCCOCCOCCOCCOCCOCCOCCOCCOCCOCCOCCOCCOCCOCCOCCOCCOCCOCCOCCOCCCNC(=O)C(O)C(O)C(OC1OC(CO)C(O)C(O)C1O)C(O)CO` (configuration not stated), in that order: more than 100 µM and more than 100 µM.
On the same counts, the results for `CCOC(=O)NC1=C(N2CC2)C(=O)C(NC(=O)OCC)=C(N2CC2)C1=O` are 14 µM and 15.7 µM.
On to `CC(C)[NH-].CC(C)[NH-].O.O.[Cl][Pt+2][Cl]`, for which, in the assay on P388 leukemia, the GI50 was 6.66 µM and the TGI amounted to 37.9 µM. Besides, in the assay on SN12K1 renal, the GI50 is 31.1 µM and the TGI turned out to be 150 µM.
